Patent publication US20180045715A1, “STRUCTURE AND FUNCTION OF THE SALICYCLIC ACID BINDING SITES ON HUMAN HMGB1 AND METHODS OF USE THEREOF FOR THE RATIONAL DESIGN OF BOTH SALICYCLIC ACID DERIVATIVES AND OTHER AGENTS THAT ALTER ANIMAL AND PLANT HMGBS ACTIVITIES” (Boyce Thompson Institute for Plant Research, Inc., priority 2015, published 2018)
Numbering of substitutions follows the chain as printed.

How the values were obtained:
[1] = molecular target: T1, full-length HMGB1 (Homo sapiens, UniProt P09429); test: Saturation transfer difference (STD) NMR; assay type: binding
T1 construct: (i) full length: residues 2-215; hexaHis (TEV-cleavable) (N, cleaved yes); made in house
T1 sequence (P09429 2-215): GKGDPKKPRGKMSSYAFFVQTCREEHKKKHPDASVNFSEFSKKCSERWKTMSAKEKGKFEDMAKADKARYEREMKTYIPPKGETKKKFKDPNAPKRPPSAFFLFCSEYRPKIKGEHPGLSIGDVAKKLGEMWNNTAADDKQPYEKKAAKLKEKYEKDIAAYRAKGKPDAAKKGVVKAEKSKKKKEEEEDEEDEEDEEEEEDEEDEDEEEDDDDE
From the text: (§1) NMR can be used to detect protein ligand interactions either by protein-detected experiments (Lepre, Moore et al. 2004), detecting changes in the frequencies of resonances of the protein sample due to ligand binding (protein-detected chemical shift perturbation (CSP) experiments), or by ligand-detected experiments (Lepre, Moore et al. 2004), in which NMR properties of the ligands due to ligand-protein interactions are detected. Protein-detected ligand binding experiments are usually done using isotope-enriched protein samples which can be studied by isotope-filtered NMR experiments, including for example ^15N-^1H-HSQC (Kay, Keifer et al. 1992). Ligand-detected experiments include the Waterlogsy experiment (Meyer and Peters 2003, Lepre, Moore et al. 2004, Furihata, Shimotakahara et al. 2008), which detects interactions in the ternary complex formed by the protein, the ligand, and one or more water molecules, and the Saturation Transfer Difference (STD) NMR experiments (Mayer and Meyer 2001, Lepre, Moore et al. 2004, Wang, Liu et al. 2004), which detects magnetization transfer from the protein to the ligand in the protein-ligand complex. The Waterlogsy experiment is a more sensitive experiment, typically employed to detect qualitatively if there is an interaction between protein and ligand. […]

[2] = molecular target: T1, full-length HMGB1; test: WaterLOGSY NMR with HMGB1; assay type: binding; details: 6 mM SA or 5 mM ac3AESA, 20 μM protein
From the text: as §1

[3] = molecular target: T2, CXCL12 (Homo sapiens, UniProt P48061); test: WaterLOGSY NMR with CXCL12; assay type: binding; details: 6 mM SA or 5 mM ac3AESA, 20 μM protein
T2 construct: full-length disulfide-intact CXCL12
From the text: as §1

[4] = molecular target: T3, K12A/K68A HMGB1^RE (Homo sapiens, UniProt P09429, K12A/K68A); test: Chemotaxis assay with mutant K12A/K68A HMGB1^RE; assay type: cell-based; details: 1 nM mutant HMGB1^RE, 30 μM SA
T3 construct: (i) full length: residues 2-215; made in house
T3 sequence (P09429 2-215 K12A/K68A): T1 sequence (P09429 2-215) with K11A, K67A
Method: Cell migration was assayed using Boyden chambers (Venereau et al., 2012). The downside of PVP-free polycarbonate filters (8 μm pores; Millipore) was coated with 50 μg/ml fibronectin (Sigma). Serum-free DMEM (negative control), DMEM containing 0.1 nM fMLP (positive control; Sigma), or DMEM containing 1 nM HMGB1^RE or HMGB1^SS were placed in the lower chamber, together with different concentrations of SA (Sigma). The mouse 3T3 fibroblast cells were cultured in DMEM media supplemented with 10% CS until 90% confluence, washed twice with PBS to eliminate any floating cells, and harvested with trypsin. 50,000 cells in 200 μL were added to the upper chamber, and cells were left to migrate for 3 h at 37° C. Non-migrating cells were removed with a cotton swab, and migrated cells were fixed with ethanol and stained with Giemsa.
Two additional double mutants in Box A were constructed—H27A/R48A and K12A/K68A. […] Since mutant H27A/R48A no longer had chemo-attractant activity, the effect of SA on this activity could not be assessed (FIG. 12).

[5] = test system: COX; details: cited from earlier work
[6] = molecular target: T4, AtHMGB3 (Arabidopsis thaliana, UniProt P93047); test: Photoaffinity labeling of AtHMGB3 with 4AzSA, competition by SA; details: 50 μM 4AzSA, increasing concentrations of SA
T4 sequence (P93047 1-141): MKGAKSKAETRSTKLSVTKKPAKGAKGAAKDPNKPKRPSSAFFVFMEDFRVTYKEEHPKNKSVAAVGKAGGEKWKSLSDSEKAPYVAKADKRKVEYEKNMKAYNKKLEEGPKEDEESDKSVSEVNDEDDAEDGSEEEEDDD

[7] = molecular target: T4, AtHMGB3; test: Callose staining: AtHMGB3-induced callose deposition in Arabidopsis leaves; assay type: in vivo; design: providing a full length Arabidopsis thaliana HMGB1 or HMGB3 (AtHMGB1 or AtHMGB3) protein; 6x His; made in house; host or cells: Escherichia coli BL21; details: 100 nM AtHMGB3, 15 h
Method: Arabidopsis leaves were collected 15 h after infiltration with 100 nM AtHMGB3 or 100 nM Pep1, and then immediately immersed in alcoholic lactophenol (phenol:glycerol:lactic acid:water:ethanol=1:1:1:1:8) to destain the chlorophyll. To remove the background fluorescence, destained leaves were treated with toluidine blue O solution (0.05% toluidine blue O, 0.1 M sodium acetate, pH 4.4) for 30 min, and then rinsed twice with 150 mM K2HPO4 (pH 9.5). Callose was stained with aniline blue solution (0.02% aniline blue, 150 mM K2HPO4, pH 9.5) for 30 min in the absence of light. The aniline blue-stained leaves were mounted with 25% glycerol and analyzed using a Leica DM5500 epifluorescence microscope. The number of callose loci was quantified using an ImageJ (NIH).

T2 sequence (P48061 22-89 limits assumed, species assumed): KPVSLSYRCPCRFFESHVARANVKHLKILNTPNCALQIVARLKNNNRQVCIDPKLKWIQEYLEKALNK

O=C(O)c1ccccc1O [SA, salicylic acid]
STD signal for binding to full-length HMGB1 ([1]; 20 μM HMGB1, pH 7.4, SA 6 mM, ac3AESA 0.6-5.8 mM): no STD signal is detected | ligand concentration at which an STD effect for HMGB1 binding is seen ([1]; 20 μM HMGB1, SA tested as high as 6 mM): no STD effect | WaterLOGSY binding to HMGB1 [2]: binds | WaterLOGSY binding to CXCL12 [3]: binds | inhibition by SA of K12A/K68A HMGB1^RE chemo-attractant activity [4]: retained | IC50, inhibition of COX activity in vitro ([5]; literature (Mitchell et al., 1997; Vane, 1971)): > 100 µg/mL | IC50 ([5]; literature, conversion in parentheses, read-out: IC50, inhibition of COX activity in vitro): > 500 µM | inhibition of crosslinking of 4AzSA to AtHMGB3 [6]: effectively inhibited | effect on AtHMGB3-induced callose deposition [7]: completely suppressed
